What was measured:
Type in all cases: physicochemical
[1] = Aqueous solubility measurements; details: for pH: final pH of saturated solution
Procedure, shortened: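 Febuxostat form shaken 24 h at 25° C in water, USP buffers pH 1.2-7.4, 0.01/0.1 N HCl, SGF, FaSSIF (pH 6.5) or FeSSIF (pH 5.0). Saturated solution filtered and filtrate concentration measured by HPLC, final pH recorded; duplicates.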

[2] = Physical stability measurements (XRPD, DSC, TGA)
Description: Testing conditions: 40° C., 60° C., 40° C./RH 75%, 60° C./RH 75%, light
Testing procedure: About 50 mg of a febuxostat form were weighed in glass vial for testing the physical stability and were stored under different conditions for 1 week and 2 weeks, separately. The same febuxostat form was stored at −20° C. as control. XRPD, DSC and TGA of each of the febuxostat forms were measured at the end of the first and second weeks.

[3] = Hygroscopicity measurements (DVS sorption/desorption profiles); details: 25° C.
[4] = Bulk and tapped density measurements
Procedure, shortened: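 Febuxostat forms passed through a 1.0 mm screen, weighed into a 10 mL graduated cylinder and leveled without compacting. Bulk density = mass/unsettled volume. Tapped density = mass/final volume after 500 then 750 further taps, Vb accepted when within 2% of Va.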

[5] = media 0.01N HCl, 24 hours at 25° C.
[6] = media 0.1N HCl, 24 hours at 25° C.
[7] = media FaSSIF, 24 hours at 25° C.
[8] = media FeSSIF, 24 hours at 25° C.
[9] = media pH 1.2 (USP), 24 hours at 25° C.
[10] = media pH 4.5 (USP), 24 hours at 25° C.
[11] = media pH 6.8 (USP), 24 hours at 25° C.
[12] = media pH 7.4 (USP), 24 hours at 25° C.
[13] = media water, 24 hours at 25° C.

## Cc1nc(-c2ccc(OCC(C)C)c(C#N)c2)sc1C(=O)O [Form XI, 2-(3-cyano-4-isobutoxyphenyl)-4-methyl-5-thiazolecarboxylic acid]
[1]; [5]
  pH: 1.981
  Visual solubility: few particles
[1]; [6]
  pH: 0.967
  Visual solubility: few particles
[1]; [7]
  pH: 6.336
  HPLC solubility: 521.19 µg/mL
  Visual solubility: Turbid + few particles
[1]; [8]
  pH: 4.998
  HPLC solubility: 149.95 µg/mL
  Visual solubility: Turbid + few particles
[1]; media SGF, 24 hours at 25° C.
  pH: 2.114
  Visual solubility: few particles
[1]; [9]
  pH: 1.132
  Visual solubility: few particles
[1]; [10]
  pH: 4.479
  HPLC solubility: 0.49 µg/mL
  Visual solubility: few particles
[1]; [11]
  pH: 6.684
  HPLC solubility: 931.90 µg/mL
  Visual solubility: Turbid + few particles
[1]; [12]
  pH: 6.905
  HPLC solubility: 4464.94 µg/mL
  Visual solubility: Slightly turbid + few
[1]; media water, shaken 24 hours at 25° C.
  pH: 8.106
[1]; [13]
  HPLC solubility: 33.82 µg/mL
  Visual solubility: Turbid + few particles
[1]; pH1.2 USP buffer, 0.01N HCl, 0.1N HCl and SGF
  aqueous solubility (in words): poor solubility
[1]; pH6.8 USP buffer, pH7.4 USP buffer, FaSSIF, FeSSIF
  aqueous solubility (in words): good solubility
[2]; 40° C., 60° C. and light at the end of the first and second week
  physical stability (XRPD, DSC, TGA): stable
[2]; 40° C./75% RH at the end of the first week
  physical stability (XRPD, DSC, TGA), form conversion: completely converted to form G
[2]; 40° C./75% RH at the end of the second week
  physical stability (XRPD, DSC, TGA), form conversion: completely converted to form G
[2]; 60° C./75% RH at the end of the first and second weeks
  physical stability (XRPD, DSC, TGA), form conversion: completely converted to form G
[3]; 0-90% relative humidity
  Hygroscopicity classification: hygroscopic
[3]; Target % P/P0 0.0
  Change in Mass (%) - ref, Desorption: −0.052%
  Change in Mass (%) - ref, Sorption: 0.001%
[3]; Target % P/P0 10.0
  Change in Mass (%) - ref, Desorption: 0.973%
  Change in Mass (%) - ref, Hysteresis: 0.164%
  Change in Mass (%) - ref, Sorption: 0.810%
[3]; Target % P/P0 20.0
  Change in Mass (%) - ref, Desorption: 1.210%
  Change in Mass (%) - ref, Hysteresis: 0.146%
  Change in Mass (%) - ref, Sorption: 1.064%
[3]; Target % P/P0 30.0
  Change in Mass (%) - ref, Desorption: 1.425%
  Change in Mass (%) - ref, Hysteresis: 0.203%
  Change in Mass (%) - ref, Sorption: 1.222%
[3]; Target % P/P0 40.0
  Change in Mass (%) - ref, Desorption: 1.560%
  Change in Mass (%) - ref, Hysteresis: 0.150%
  Change in Mass (%) - ref, Sorption: 1.410%
[3]; Target % P/P0 50.0
  Change in Mass (%) - ref, Desorption: 1.728%
  Change in Mass (%) - ref, Hysteresis: 0.169%
  Change in Mass (%) - ref, Sorption: 1.559%
[3]; Target % P/P0 60.0
  Change in Mass (%) - ref, Desorption: 1.948%
  Change in Mass (%) - ref, Hysteresis: 0.166%
  Change in Mass (%) - ref, Sorption: 1.782%
[3]; Target % P/P0 70.0
  Change in Mass (%) - ref, Desorption: 2.187%
  Change in Mass (%) - ref, Hysteresis: 0.130%
  Change in Mass (%) - ref, Sorption: 2.057%
[3]; Target % P/P0 80.0
  Change in Mass (%) - ref, Desorption: 2.503%
  Change in Mass (%) - ref, Hysteresis: 0.089%
  Change in Mass (%) - ref, Sorption: 2.414%
[3]; Target % P/P0 90.0
  Change in Mass (%) - ref, Desorption: 3.111%
  Change in Mass (%) - ref, Sorption: 3.111%
[4]
  Bulk Density: 0.346 g/mL
  Tapped Density: 0.553 g/mL
[4]; compared among forms V, IX, XI and form G
  bulk and tapped densities (in words): adequate bulk and tapped densities
